Assay: xn = mol fraction of the nth substance listed
Conditions: Fluid (supercritical or subcritical phases), Other PVT measurement

CF [fluoromethane] + [N-]=[N+]=O
Conditions	molar volume [m3/mol]
263.02 K, 2088.5 kPa, x2 = 0.6161	0.000766
263.03 K, 1936.1 kPa, x2 = 0.508	0.000863
267.98 K, 1999.2 kPa, x2 = 0.508	0.000863
268 K, 2048.2 kPa, x2 = 0.3047	0.00074
268 K, 2223.9 kPa, x2 = 0.6161	0.000766
272.89 K, 2060.3 kPa, x2 = 0.508	0.000863
272.98 K, 2295.8 kPa, x2 = 0.6161	0.000766
273.01 K, 2223.5 kPa, x2 = 0.3047	0.000741
273.05 K, 1878.4 kPa, x2 = 0.1467	0.000909
277.86 K, 2121 kPa, x2 = 0.508	0.000863
282.81 K, 2371.8 kPa, x2 = 0.3047	0.000741
282.83 K, 1994.7 kPa, x2 = 0.1467	0.000909
283.04 K, 2438 kPa, x2 = 0.6161	0.000767
287.8 K, 4359.8 kPa, x2 = 0.8263	0.000305
288.08 K, 2242.8 kPa, x2 = 0.508	0.000864
292.79 K, 2109.4 kPa, x2 = 0.1467	0.00091
292.93 K, 4761.6 kPa, x2 = 0.8263	0.000305
292.96 K, 2512.2 kPa, x2 = 0.3047	0.000741
293.07 K, 2574.6 kPa, x2 = 0.6161	0.000767
298.08 K, 2168.4 kPa, x2 = 0.1467	0.00091
298.09 K, 2358.5 kPa, x2 = 0.508	0.000864
298.11 K, 2642.6 kPa, x2 = 0.6161	0.000767
298.17 K, 2591.9 kPa, x2 = 0.3047	0.000741
302.97 K, 5179 kPa, x2 = 0.8263	0.000305
307.96 K, 5380.9 kPa, x2 = 0.8263	0.000305
308.05 K, 2279.3 kPa, x2 = 0.1467	0.00091
308.06 K, 2474.5 kPa, x2 = 0.508	0.000865
308.13 K, 2731.2 kPa, x2 = 0.3047	0.000742
308.15 K, 2774.9 kPa, x2 = 0.6161	0.000768
312.91 K, 5577.9 kPa, x2 = 0.8263	0.000305
318.05 K, 2388.7 kPa, x2 = 0.1467	0.000911
318.11 K, 2867.7 kPa, x2 = 0.3047	0.000742
318.12 K, 2588.2 kPa, x2 = 0.508	0.000865
318.12 K, 2904.6 kPa, x2 = 0.6161	0.000768
328.03 K, 2496.3 kPa, x2 = 0.1467	0.000911
328.09 K, 3033 kPa, x2 = 0.6161	0.000768
328.1 K, 3002.9 kPa, x2 = 0.3047	0.000742
328.11 K, 2699.9 kPa, x2 = 0.508	0.000865
338.08 K, 2810.2 kPa, x2 = 0.508	0.000866
338.08 K, 3160 kPa, x2 = 0.6161	0.000769
338.09 K, 2603.1 kPa, x2 = 0.1467	0.000912
338.09 K, 3135.8 kPa, x2 = 0.3047	0.000743
347.94 K, 2707 kPa, x2 = 0.1467	0.000912
348.05 K, 3285.8 kPa, x2 = 0.6161	0.000769
348.06 K, 2919.8 kPa, x2 = 0.508	0.000866
348.06 K, 3267 kPa, x2 = 0.3047	0.000743
354.94 K, 2779.9 kPa, x2 = 0.1467	0.000912
358.03 K, 3396.5 kPa, x2 = 0.3047	0.000743
358.03 K, 3410.5 kPa, x2 = 0.6161	0.000769
358.05 K, 3028.8 kPa, x2 = 0.508	0.000867

— the NIST ThermoML archive (doi:10.1016/j.fluid.2004.11.021)
